Experimental data as given in patent US7897349B2, “Macrophage migration inhibitory factor (MIF) as marker for urological inflammatory disease” (The United States of America as represented by the …, priority 2003, dated 2011).
Ends that are not written are not given here.

Key:
[1] = system: bladder, lumbosacral spinal cord, DRG and MPG; experiment: Intravesical bacterial endotoxin (LPS) model of bladder inflammation; type: in vivo, rat
Description: Intravesical instillation of a bacterial endotoxin (lipopolysaccharide from E. Coli) has been documented to produce histological signs of bladder inflammation (Stein et al., J. Urol. 155: 1133-1138, 1996; Saban et al., Am. J Pathol. 160: 2095-2110, 2002; Wheeler et al., Eur. J Pharmacol. 417: 239-248, 2001). […] Therefore, we examined the effects of intravesical LPS on the levels of MIF and cox-2 on the bladder, lumbosacral spinal cord, DRG and MPG.

[2] = system: prostate and bladder
Description: In CPPS, prostatic inflammation is suspected to result in referred visceral pain and urodynamic changes. Therefore, we established a model of prostatitis that would allow the study of histological, molecular and physiological changes in the bladder and the prostate, in an effort to correlate it to visceral referred pain.

[3] = system: bladder and the prostate; experiment: Systemic substance P (SP) model of neurogenic inflammation in the bladder and prostate; type: in vivo, rat
Description: We sought to determine if neurogenic inflammation alone (without producing damage or insult to the bladder epithelia, as was the case in the acid and LPS cystitis models) was also able to alter MIF levels in the bladder. In addition, we examined the prostate for signs of inflammation. Systemic injections of SP elicited plasma extravasation and edema (neurogenic inflammation) in the bladder and the prostate. We examined MIF and cox-2 to compare the results with our previous models of bladder injury (acid and LPS). In addition, we examined nerve growth factor (NGF) and the proto-oncogene c-fos.

[4] = system: bladder; experiment: Substance P induced changes in CD74, CD44, p-ERK1/2 and MIF in the rat bladder; type: in vivo; conditions: subcutaneous SP 40 μg/kg; one hour
Protocol: The materials and methods are identical to Meyer-Siegler et al. (Journal of Urology 173: February, 2005), the disclosure of which is incorporated herein by reference. In anesthetized rats, the bladder was isolated by cutting the ureters and urine was replaced by saline as intraluminal fluid ([…]). One hour after subcutaneous SP (40 μg/kg) or saline administration, the ILF and bladder were collected. Bladder tissue was analyzed for CD74 and CD44 by immunohistochemistry. Western blot analysis determined the relative amounts of bladder tissue MIF, CD74, CD44, and p-ERK1/2. ILF immunoprecipitation followed by Western blot analysis was performed to identify an association of MIF with CD74 and/or CD44

lipopolysaccharide from E. Coli [LPS]
histological changes of the bladder ([1]; intravesical LPS): marked histological changes indicative of cystitis | MIF protein and mRNA in all the tissues, including the bladder ([1]; intravesical LPS treated rats): significant increases

C=O [formalin]
MIF protein level in the bladder ([2]; animals receiving formalin in the prostate): significantly reduced | persistence of bladder hyperreflexia ([2]; chemical irritation of the prostate): at least 1 hour | bladder intercontraction interval ([2]; formalin injected into the prostate, maximal in first ten minutes, persisted 60 min): significant decrease

Substance P (RPKPQQFFGLM-NH2; ends and bridges not checked; UniProt P20366 58-68, looked up) [SP, tachykinin; systemic injection used as model of neurogenic inflammation]
cox-2 and c-fos levels in the bladder and the prostate ([3]; SP group): significantly elevated | MIF levels in the urine and serum ([3]; SP treated animals with isolated bladders): significantly increased | content of MIF in bladders and prostates ([3]; SP treated compared to saline treated): marked decrease | edema in the lamina propria of the bladder (Mean) ([3]; SP treated rats compared to saline treated rats, p<0.05): 2.69±0.1 | NGF levels in the prostate and the urine ([3]; SP treated rats, not elevated in the bladder): significantly elevated | CD74 and CD44 bladder immunostaining [4]: increased | MIF release from the bladder [4]: significant MIF release | total bladder CD74 protein and mRNA, intracellular domain CD44, p-ERK1/2 and soluble CD44 in the ILF [4]: increased
